Here are results for 39 compounds from ChEMBL document CHEMBL4483862, “Open-source discovery of chemical leads for next-generation chemoprotective antimalarials” (2018).

The subject of this assay is Plasmodium berghei. In words: Luciferase/luciferin-expressing antifolate-resistant parasites were used to infect a culture of HepG2 cells that were pre-incubated with compounds. Infected hepatocytes emit light due to the luciferase reaction. Assay results are presented as the percent inhibition of light emission compared to control. […]. The following applies: sporozoite; for IC90: read-out: LUCIFERASE INFECTION ASSAY - IC90. Type of assay: functional.

Where [1] appears, read: read-out: LUCIFERASE INFECTION ASSAY - IC50.

Consider `CC(C)NC(=O)c1c(NC(=O)c2ccc(C(F)(F)F)cc2)nc2ccccn12`, for which the IC90 came to 1.46 µM. Also, where the note is “FFLUC_HILL_SLOPE 4.65, FFLUC_R_SQUARED 0.42, HEPG2TOX_HILL_SLOPE 0.706, HEPG2TOX_R_SQUARED 0.931, PBLUC_HILL_SLOPE 2.98, PBLUC_R_SQUARED 0.635, read-out: LUCIFERASE INFECTION ASSAY - IC50”, the IC50 came to 0.698 µM.

On to `COc1cccc(C(=O)Nc2nc3ccc(C)cn3c2C(=O)NCC(C)C)c1`, for which the IC90 came to 4.69 µM. In addition, the IC50 under setting [1] is 2.62 µM.

As to `Cc1cc(C(=O)CN2C(=O)NC3(CCCc4sccc43)C2=O)c(C)n1Cc1ccc2c(c1)OCO2` (stereo not drawn), the IC90 was greater than 10 µM. Besides, the IC50 (PBLUC_HILL_SLOPE 2.26, PBLUC_R_SQUARED 0.443, read-out: LUCIFERASE INFECTION ASSAY - IC50) came to 8.17 µM.

Take `Nc1cc(-c2ccc(Br)s2)n[nH]1`: the IC90 is greater than 10 µM. For the same compound, under setting [1], the IC50 is greater than 10 µM.

Take `CNc1nc2cnc(-c3cccc(Oc4ccccc4)c3)cc2n1-c1cccc(F)c1`: the IC90 is greater than 10 µM. In addition, for the setting “FFLUC_HILL_SLOPE 5.28, FFLUC_R_SQUARED 0.776, PBLUC_HILL_SLOPE 4.98, PBLUC_R_SQUARED 0.188, read-out: LUCIFERASE INFECTION ASSAY - IC50”, the IC50 amounted to 8.03 µM.

`CC(c1nc(N)nc(N(C)C)n1)N(C)Cc1ccc(-c2ccc(Br)cc2)o1` (stereo not drawn): the IC90 is greater than 10 µM. Besides, the IC50 under setting [1] was greater than 10 µM.

For `c1ccc(C(CCNCc2ccco2)c2ccco2)cc1` (stereo not drawn), the IC90 is greater than 11.7 µM. Besides, the IC50 (HEPG2TOX_HILL_SLOPE 6.65, HEPG2TOX_R_SQUARED 0.638, PBLUC_HILL_SLOPE 2.47, PBLUC_R_SQUARED 0.734, read-out: LUCIFERASE INFECTION ASSAY - IC50) worked out at 4.89 µM.

Take `CCOC(=O)c1ccc(N2C(=O)C=CC2=O)cc1`: the IC90 was greater than 13.5 µM. In addition, under “FFLUC_HILL_SLOPE 9.09, FFLUC_R_SQUARED 0.613, PBLUC_HILL_SLOPE 2.11, PBLUC_R_SQUARED 0.463, read-out: LUCIFERASE INFECTION ASSAY - IC50”, the IC50 amounted to 7.08 µM.

Take `CCOc1ccc(-c2nc(CSC(C)C(=O)Nc3c(Cl)cccc3Cl)cs2)cc1` (stereo not drawn): the IC90 is greater than 10 µM. Moreover, the IC50 under setting [1] is greater than 10 µM.

As for `O=C(Nc1cc(Cl)cc(Cl)c1)Nc1cc(-c2cccs2)n[nH]1`, the IC90 is 9.3 µM. Also, the IC50 (FFLUC_HILL_SLOPE 1.15, FFLUC_R_SQUARED 0.0672, PBLUC_HILL_SLOPE 14.1, PBLUC_R_SQUARED 0.219, read-out: LUCIFERASE INFECTION ASSAY - IC50) was found to be 7.95 µM.

In the case of `Cc1ccc(CSc2nccc(-c3c(C)nc4ccccn34)n2)cc1`, the IC90 is greater than 9.53 µM. Moreover, the IC50 (HEPG2TOX_HILL_SLOPE 2.56, HEPG2TOX_R_SQUARED 0.969, PBLUC_HILL_SLOPE 4.1, PBLUC_R_SQUARED 0.204, read-out: LUCIFERASE INFECTION ASSAY - IC50) was found to be 6.17 µM.

`N#CC(Nc1ccc(C(F)(F)F)cc1)c1ccccc1` (stereo not drawn): the IC90 is greater than 11.9 µM. The IC50 under setting [1] was greater than 11.9 µM.

For `Cc1c(-c2ccccc2)oc2c(C(=O)N(Cc3ccccc3Cl)S(=O)(=O)c3cccc(C(F)(F)F)c3)cccc2c1=O`, the IC90 is greater than 10 µM. Moreover, the IC50 (HEPG2TOX_HILL_SLOPE 8.04, HEPG2TOX_R_SQUARED 0.64, PBLUC_HILL_SLOPE 8.59, PBLUC_R_SQUARED 0.6, read-out: LUCIFERASE INFECTION ASSAY - IC50) was found to be 7.82 µM.

`OC(c1cccc(OC(F)(F)F)c1)c1nnc(Nc2ccc(F)c(Cl)c2)s1` (stereo not drawn): the IC90 was greater than 10 µM. Further, the IC50 (FFLUC_HILL_SLOPE 2.61, FFLUC_R_SQUARED 0.0634, read-out: LUCIFERASE INFECTION ASSAY - IC50) is greater than 10 µM.

In the case of `COc1cc(NC(=O)COC(=O)CNC(=O)C2CCCCC2)cc(OC)c1`, the IC90 was greater than 10 µM. In addition, under setting [1], the IC50 is greater than 10 µM.

For `CCc1ccc(NC(=O)c2cc(OC)c(OC)c(OC)c2)cc1[N+](=O)[O-]`, the 90% effect concentration (IC90) is greater than 10 µM. Moreover, the IC50 (HEPG2TOX_HILL_SLOPE 7.15, HEPG2TOX_R_SQUARED 0.493, PBLUC_HILL_SLOPE 1.31, PBLUC_R_SQUARED 0.625, read-out: LUCIFERASE INFECTION ASSAY - IC50) was 6.01 µM.

On to `C[C@H](NC(N)=O)C(=O)OCC(=O)Nc1cccc(C#N)c1`, for which the IC90 was greater than 10 µM. Also, the IC50 under setting [1] is greater than 10 µM.

For `CC1CCc2c(sc3ncnc(NCC(c4ccccc4)N(C)C)c23)C1` (stereo not drawn), the IC90 was greater than 10 µM. The IC50 under setting [1] was greater than 10 µM.

On to `COc1ccc(/C=c2\s/c(=C\C(=O)C(C)(C)C)[nH]c2=O)cc1OCc1cccnc1`, for which the IC90 was greater than 10 µM. The IC50 under setting [1] is greater than 10 µM.

`CN(C)C(=O)c1ccc(NCC(=O)N2N=C(c3ccc(Cl)cc3)CC2c2ccco2)cc1` (stereo not drawn): the IC90 worked out at 8.21 µM. Further, the IC50 (PBLUC_HILL_SLOPE 25.7, PBLUC_R_SQUARED 0.49, read-out: LUCIFERASE INFECTION ASSAY - IC50) was determined as 7.54 µM.

For the compound `CCCOc1cc2cc(C(=O)c3ccccc3O)cnc2cc1OCCC`, the IC90 turned out to be 4.78 µM. For the same compound, the IC50 (FFLUC_HILL_SLOPE 5.56, FFLUC_R_SQUARED 0.125, HEPG2TOX_HILL_SLOPE 2.18, HEPG2TOX_R_SQUARED 0.51, PBLUC_HILL_SLOPE 8.83, PBLUC_R_SQUARED 0.576, read-out: LUCIFERASE INFECTION ASSAY - IC50) was determined as 3.73 µM.

Regarding `CCOc1ccc(OCCC(=O)NCc2cccc(C(F)(F)F)c2)cc1`, the IC90 is greater than 10 µM. Further, the IC50 under setting [1] was greater than 10 µM.

With `Cc1ccc(-c2cc3nc(SCCOc4ccccc4F)n(Cc4ccccc4)c(=O)c3s2)cc1`, the IC90 was greater than 10 µM. Also, the IC50 under setting [1] is greater than 10 µM.

As for `CCC(C)NC(=O)c1c(NC(=O)c2ccccc2)nc2ccc(C)cn12` (stereo not drawn), the IC90 was greater than 9.42 µM. The IC50 (PBLUC_HILL_SLOPE 13.5, PBLUC_R_SQUARED 0.225, read-out: LUCIFERASE INFECTION ASSAY - IC50) came out at 8.13 µM.

Consider `COc1cc(-c2cnc3cnc(-c4ccccc4Cl)cn23)cc(OC)c1OC`, for which the 90% effect concentration (IC90) is greater than 8.34 µM. The IC50 (HEPG2TOX_HILL_SLOPE 7.56, HEPG2TOX_R_SQUARED 0.703, PBLUC_HILL_SLOPE 2.2, PBLUC_R_SQUARED 0.686, read-out: LUCIFERASE INFECTION ASSAY - IC50) turned out to be 6.11 µM.

On to `CNc1cc(-c2ccc(O)cc2C)nc2ccnn12`, for which the IC90 amounted to 8.61 µM. Besides, the IC50 (HEPG2TOX_HILL_SLOPE 3.86, HEPG2TOX_R_SQUARED 0.988, PBLUC_HILL_SLOPE 1.91, PBLUC_R_SQUARED 0.706, read-out: LUCIFERASE INFECTION ASSAY - IC50) was 2.73 µM.

On to `O=c1nc(SCc2ccc(Cl)cc2Cl)[nH]c2ccccc12`, for which the IC90 was greater than 9.79 µM. Further, the IC50 under setting [1] was greater than 9.79 µM.

For `Cc1cc(C(=O)NC2CC2)c(C)n1-c1ccc(C(C)C)cc1`, the IC90 is greater than 10 µM. Moreover, the IC50 (PBLUC_HILL_SLOPE 2.98, PBLUC_R_SQUARED 0.567, read-out: LUCIFERASE INFECTION ASSAY - IC50) turned out to be 6.28 µM.

Take `CCCCc1ccc(NC(=O)/C(C#N)=C/c2ccccc2Cl)cc1`: the IC90 was greater than 10 µM. The IC50 under setting [1] was greater than 10 µM.

With `CCCCc1ccc(C(=O)Nc2nc3ccc(C)cn3c2C(=O)NCCC)cc1`, the IC90 was 3.18 µM. Also, the IC50 (HEPG2TOX_HILL_SLOPE 1.88, HEPG2TOX_R_SQUARED 0.855, PBLUC_HILL_SLOPE 16.2, PBLUC_R_SQUARED 0.661, read-out: LUCIFERASE INFECTION ASSAY - IC50) was determined as 2.78 µM.

In the case of `CCOC(=O)c1[nH]c2ccccc2c1-c1ccccc1`, the 90% effect concentration (IC90) was greater than 12.4 µM. For the same compound, under setting [1], the IC50 was greater than 12.4 µM.

As for `CC1(C)CC(=O)C=C(SCCS(=O)(=O)c2ccc(Cl)cc2)S1`, the IC90 was greater than 8.75 µM. The IC50 under setting [1] is greater than 8.75 µM.

As to `O=C(Nc1cc(Cl)cc(Cl)c1)c1cc(Cl)ccc1O`, the IC90 was found to be 1.1 µM. The IC50 (HEPG2TOX_HILL_SLOPE 1.87, HEPG2TOX_R_SQUARED 0.915, PBLUC_HILL_SLOPE 2.8, PBLUC_R_SQUARED 0.713, read-out: LUCIFERASE INFECTION ASSAY - IC50) was 0.502 µM.

For the compound `COCCOc1ccc(C(F)(F)F)cc1NC(=O)c1ccc(SCc2cscn2)cc1`, the IC90 was greater than 10 µM. The IC50 (PBLUC_HILL_SLOPE 14.5, PBLUC_R_SQUARED 0.0793, read-out: LUCIFERASE INFECTION ASSAY - IC50) turned out to be 8.84 µM.

As for `CSC(SC)=C(C#N)S(=O)(=O)C(C)C`, the IC90 was greater than 13.1 µM. For the same compound, the IC50 under setting [1] was greater than 13.1 µM.

On to `CCn1c2ccccc2c2cc(NC(=O)C3CCCN(c4ncccn4)C3)ccc21` (stereo not drawn), for which the IC90 was determined as 2.28 µM. The IC50 (HEPG2TOX_HILL_SLOPE 1.64, HEPG2TOX_R_SQUARED 0.977, PBLUC_HILL_SLOPE 1.41, PBLUC_R_SQUARED 0.865, read-out: LUCIFERASE INFECTION ASSAY - IC50) was 0.477 µM.

As to `CC(C)(C)c1ccccc1NC(=O)Nc1nc(C(N)Cc2ccc(C(F)(F)F)cc2)cs1` (stereo not drawn), the IC90 was determined as 3.44 µM. Under “PBLUC_HILL_SLOPE 9.7, PBLUC_R_SQUARED 0.271, read-out: LUCIFERASE INFECTION ASSAY - IC50”, the concentration for half-maximal inhibition (IC50) came to 2.74 µM.

Regarding `O=C(Nc1ccc(-n2cnc3ccccc32)cc1)c1ccc(NC(=O)C2CC2)cc1`, the IC90 is greater than 10 µM. Besides, the IC50 (HEPG2TOX_HILL_SLOPE 1.98, HEPG2TOX_R_SQUARED 0.988, PBLUC_HILL_SLOPE 3.86, PBLUC_R_SQUARED 0.781, read-out: LUCIFERASE INFECTION ASSAY - IC50) is 6.59 µM.

As for `CCn1c2ccccc2c2cc(NC(=O)c3ccncc3)ccc21`, the IC90 stood at 3.82 µM. In addition, the IC50 (HEPG2TOX_HILL_SLOPE 3.45, HEPG2TOX_R_SQUARED 0.806, PBLUC_HILL_SLOPE 11.3, PBLUC_R_SQUARED 0.493, read-out: LUCIFERASE INFECTION ASSAY - IC50) stood at 3.14 µM.

One may read the IC50 as the concentration needed to halve the response being measured. A word on the IC90: it is the point of the concentration-response curve where the effect stands at 90%.
